These results are taken from ChEMBL document CHEMBL1136093, “A four component coupling strategy for the synthesis of D-phenylglycinamide-derived non-covalent factor Xa inhibitors” (Bioorg Med Chem Lett, 2003).

The first assay deals with Coagulation factor X (Homo sapiens) (UniProt P00742). Description: Binding ability to coagulation factor Xa, expressed as apparent association constant.
Chain of Coagulation factor X (Homo sapiens) (P00742 41-179 limits assumed): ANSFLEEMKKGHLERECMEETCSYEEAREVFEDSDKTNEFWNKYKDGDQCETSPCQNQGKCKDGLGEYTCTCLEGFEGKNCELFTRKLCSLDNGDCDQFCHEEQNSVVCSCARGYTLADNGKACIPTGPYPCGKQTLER
Chain of Coagulation factor X (Homo sapiens) (P00742 235-488 limits assumed): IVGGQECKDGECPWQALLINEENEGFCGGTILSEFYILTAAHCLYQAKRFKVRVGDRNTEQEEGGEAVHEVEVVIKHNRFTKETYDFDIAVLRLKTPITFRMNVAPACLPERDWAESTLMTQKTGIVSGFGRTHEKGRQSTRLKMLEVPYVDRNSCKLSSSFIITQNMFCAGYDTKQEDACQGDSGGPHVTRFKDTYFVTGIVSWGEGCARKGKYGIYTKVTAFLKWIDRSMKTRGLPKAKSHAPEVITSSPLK
Consider `O=C(NC(C(=O)NCC1CCN(C2CCCC2)CC1)c1nccs1)c1ccc2c(Cl)c[nH]c2c1` (stereo not drawn), for which the K ass is 3.8e+08 l M-1.

As to `COc1ccc(C(=O)NC(C(=O)NCC2CCN(C(C)C)CC2)c2ccccc2OCc2ccccc2)cc1` (stereo not drawn), the K ass is 2.6e+06 l M-1.

Take `COc1ccc(C(=O)NC(C(=O)NCC2CCN(C(C)C)CC2)c2ccoc2)cc1` (stereo not drawn): the K ass was 200000 l M-1.

`O=C(NC(C(=O)NCC1CCN(C2CCCC2)CC1)c1cnc2ccccc2c1)c1ccc2c(Cl)c[nH]c2c1` (stereo not drawn): the K ass was 200000 l M-1.

In the case of `COc1ccc(C(=O)NC(C(=O)NCC2CCN(C(C)C)CC2)c2cccs2)cc1` (stereo not drawn), the K ass is 1.1e+06 l M-1.

Turning to `CCOc1ccccc1C(NC(=O)c1ccc(OC)cc1)C(=O)NCC1CCN(C(C)C)CC1` (stereo not drawn), the K ass was 2.8e+06 l M-1.

Turning to `O=C(NC(C(=O)NCC1CCN(C2CCCC2)CC1)c1ccc2ccccc2c1)c1ccc2c(Cl)c[nH]c2c1` (stereo not drawn), the K ass was 7.9e+07 l M-1.

`COc1ccc(C(=O)NC(C(=O)NCC2CCN(C(C)C)CC2)c2ccccc2[N+](=O)[O-])cc1` (stereo not drawn): the K ass was 4.2e+06 l M-1.

As to `COc1ccc(C(=O)NC(C(=O)NCC2CCN(C(C)C)CC2)c2ccccc2Cl)cc1` (stereo not drawn), the K ass is 5.1e+06 l M-1.

For `COc1ccc(C(=O)NC(C(=O)NCC2CCN(C(C)C)CC2)c2ccccc2C)cc1` (stereo not drawn), the K ass was 2.5e+06 l M-1.

For the compound `COc1ccc(C(=O)NC(C(=O)NCC2CCN(C(C)C)CC2)c2ncc[nH]2)cc1` (stereo not drawn), the K ass is 210000 l M-1.

On to `COc1ccc(C(=O)NC(C(=O)NCC2CCN(C(C)C)CC2)c2ccccc2Br)cc1` (stereo not drawn), for which the K ass was 4.6e+06 l M-1.

As to `COc1ccc(C(=O)NC(C(=O)NCC2CCN(C(C)C)CC2)c2ccccc2)cc1` (stereo not drawn), the K ass was 710000 l M-1.

With `COc1ccc(C(=O)NC(C(=O)NCC2CCN(C(C)C)CC2)c2ccccc2C(F)(F)F)cc1` (stereo not drawn), the K ass is 3.1e+06 l M-1.

With `COc1ccc(C(=O)NC(C(=O)NCC2CCN(C(C)C)CC2)c2ccccc2N(C)C)cc1` (stereo not drawn), the K ass is 1.1e+06 l M-1.

As for `COc1ccc(C(=O)NC(C(=O)NCC2CCN(C(C)C)CC2)c2ccccc2F)cc1` (stereo not drawn), the K ass was 2e+06 l M-1.

Regarding `COc1ccc(C(=O)NC(C(=O)NCC2CCN(C(C)C)CC2)c2ccccc2Oc2ccccc2)cc1` (stereo not drawn), the K ass is 1.3e+06 l M-1.

On to `O=C(N[C@@H](C(=O)NCC1CCN(C2CCCC2)CC1)c1ccccc1)c1ccc2c(Cl)c[nH]c2c1`, for which the K ass was 8.2e+08 l M-1.

In the case of `COc1ccc(C(=O)NC(C(=O)NCC2CCN(C(C)C)CC2)c2ccccc2SC(C)(C)C)cc1` (stereo not drawn), the K ass is 1.7e+06 l M-1.

As for `COc1ccc(C(=O)NC(C(=O)NCC2CCN(C(C)C)CC2)c2ccccc2O)cc1` (stereo not drawn), the K ass was 1.3e+06 l M-1.

In the case of `COc1ccc(C(=O)NC(C(=O)NCC2CCN(C(C)C)CC2)c2ccnc3ccccc23)cc1` (stereo not drawn), the K ass is 1.3e+06 l M-1.

As to `O=C(NC(C(=O)NCC1CCN(C2CCCC2)CC1)c1cccc2ccccc12)c1ccc2c(Cl)c[nH]c2c1` (stereo not drawn), the K ass was 2.5e+08 l M-1.

For `COc1ccc(C(=O)NC(C(=O)NCC2CCN(C(C)C)CC2)c2ccccc2N)cc1` (stereo not drawn), the K ass was 750000 l M-1.

For the compound `COc1ccc(C(=O)NC(C(=O)NCC2CCN(C(C)C)CC2)c2cnc3ccccc3c2)cc1` (stereo not drawn), the K ass was 50000 l M-1.

With `COc1ccc(C(=O)NC(C(=O)NCC2CCN(C(C)C)CC2)c2ccccc2OC)cc1` (stereo not drawn), the K ass is 1.9e+06 l M-1.

For `COc1ccc(C(=O)NC(C(=O)NCC2CCN(C(C)C)CC2)c2ccccc2I)cc1` (stereo not drawn), the K ass is 4.1e+06 l M-1.

`COc1ccc(C(=O)NC(C(=O)NCC2CCN(C(C)C)CC2)c2ccccc2SC)cc1` (stereo not drawn): the K ass is 2.9e+06 l M-1.

For `COc1ccc(C(=O)NC(C(=O)NCC2CCN(C(C)C)CC2)c2ccccc2OC(F)(F)F)cc1` (stereo not drawn), the K ass is 4.1e+06 l M-1.

As for `COc1ccc(C(=O)NC(C(=O)NCC2CCN(C(C)C)CC2)c2ccco2)cc1` (stereo not drawn), the K ass was 360000 l M-1.

Consider `COc1ccc(C(=O)NC(C(=O)NCC2CCN(C(C)C)CC2)c2ccsc2)cc1` (stereo not drawn), for which the K ass is 880000 l M-1.

The species entered for the next assay is Homo sapiens. Description: Concentration required to double the time of clot formation in reconstituted human plasma, using prothrombin time assay. Format: functional, organism-based.
In turn, `O=C(NC(C(=O)NCC1CCN(C2CCCC2)CC1)c1nccs1)c1ccc2c(Cl)c[nH]c2c1` (stereo not drawn) displayed a Concentration of 0.79 µM.

`O=C(NC(C(=O)NCC1CCN(C2CCCC2)CC1)c1ccc2ccccc2c1)c1ccc2c(Cl)c[nH]c2c1` (stereo not drawn) displayed a Concentration of 4.1 µM.

The compound `O=C(NC(C(=O)NCC1CCN(C2CCCC2)CC1)c1cccc2ccccc12)c1ccc2c(Cl)c[nH]c2c1` (stereo not drawn) came in with a Concentration of 3.8 µM.
